{
  "source": "patent US8821887B2",
  "about": "“T-cell antigen peptide from allergen for stimulation of IL-10 production” (Circassia Limited, priority 2008, dated 2014)",
  "note": "Non-standard residues stand in square brackets, D forms with d. No end group written: not given here. 5‑aminobutyric acid = not defined here",
  "data": [
    {"test_system": "PBMC's", "test": "Cytokine release assay (IL-10 release from PBMCs, ELISA or multiplex bead array)", "type": "cell-based", "conditions": "house dust mite peptides of Example 1; PBMCs of dust mite allergic individuals; 5 days stimulation; FIGS. 1 and 2", "experimental": "(§1) FIGS. 1 and 2 show mean IL-10 release (y axis, pg/ml) in response to the house dust mite peptides shown on the x axis, for a population of dust mite allergic individuals.\n(§2) FIGS. 3 and 4 show mean IL-10 release (y axis, pg/ml) in response to the ragweed peptides shown on the x axis, for a population of ragweed allergic individuals.\n(§3) Cytokine secretion profiles from PBMC's are analysed in response to the peptide stimulation using the peptides from Examples 1 and 2. Supernatants from the cytokine release assay were tested for the presence of IL-10, using either an ELISA assay or a multiplex bead array assay. A typical cytokine release assay requires 40×10^6 PBMC's per subject. In more detail, 250 μl of a 200 μg/ml solution of the appropriate antigen or peptide concentration is distributed into the appropriate wells of 48 well plates. Plates are then incubated in a humidified 5% CO2 incubator at 37° C. for a maximum of 4 hours. 250 μl of a 5×10^6 cell/ml PBMC suspension is then added to each well and the plates returned to the incubator for 5 days. Following stimulation, samples of culture supernatant are harvested for testing by ELISA or multiplex bead assay according to standard protocols.", "values": [
      {"sequence": "DEFKNRFLMSAEAFE [HDM202]", "IL-10 production compared with other peptides": "higher IL-10 production than other peptides", "IL-10 release compared with whole allergen": "higher IL-10 release than whole allergen"},
      {"sequence": "ELVDSASQHG (Description of Artificial Sequence: Synthetic HDM03W peptide)", "IL-10 production compared with other peptides": "higher IL-10 production than other peptides", "IL-10 release compared with whole allergen": "higher IL-10 release than whole allergen"},
      {"sequence": "EQELVDSASQHG [HDM03V]", "IL-10 production compared with other peptides": "higher IL-10 production than other peptides"},
      {"sequence": "RNQSLDLAEQELVD ? ASQH (RNQSLDLAEQELVD[5‑aminobutyric acid]ASQH; not fully specified; reading uncertain) [HDM03E, character = 2-aminobutryic acid]", "IL-10 production compared with other peptides": "higher IL-10 production than other peptides", "IL-10 release compared with whole allergen": "higher IL-10 release than whole allergen"},
      {"sequence": "RNQSLDLAEQELVDSASQH (Description of Artificial Sequence: Synthetic HDM03D peptide)", "IL-10 production compared with other peptides": "higher IL-10 production than other peptides"}
    ]},
    {"test_system": "PBMC's", "test": "Cytokine release assay (IL-10 release from PBMCs, ELISA or multiplex bead array)", "type": "cell-based", "conditions": "ragweed peptides of Example 2; PBMCs of ragweed allergic individuals; 5 days stimulation; FIGS. 3 and 4", "experimental": "as §1, §2, §3", "values": [
      {"sequence": "GEAAIKLTSSAGVLS [RGW07]", "IL-10 production compared with other peptides": "higher IL-10 production than other peptides"},
      {"sequence": "GESALSLTSSAGVLS [RGW07B]", "IL-10 production compared with other peptides": "higher IL-10 production than other peptides"},
      {"sequence": "KGEAAIKLTSSAGVLSK [RGW07C]", "IL-10 production compared with other peptides": "higher IL-10 production than other peptides"},
      {"sequence": "KGEAAIKLTSSAGVLSKK [RGW07D]", "IL-10 production compared with other peptides": "higher IL-10 production than other peptides", "IL-10 release compared with whole allergen": "higher IL-10 release than whole allergen"}
    ]}
  ]
}
